Laboratory results published in patent US4705797A, “N-(3,3-diphenylpropyl) aminoethyl esters of 1,4-dihydro-2,6-dimethyl-pyridine-3,5-dicarboxylic acid, compositions and use” (Recordati S.A., Chemical and Pharmaceutical Company, priority 1984, dated 1987).
Where two headings read alike, the source gives them in different places.

Legend:
[1] = LD50 determined in the mouse, i.p. and per os (Weil method); assay type: in vivo; conditions: in vivo
Procedure: (§1) The LD50 of the compounds according to the invention was determined in the mouse, both i.p. and per os, according to the method described by C. S. Weil [Biometrics, 8, 249 (1952)].

hypertensive rats (SHR) = assay: Antihypertensive activity in male hypertensive rats (SHR), systolic blood pressure by indirect tail-cuff method; assay type: in vivo, rat (SHR, Wister-Kyoto strain); conditions: 0.5% methylcellulose, systolic blood pressure measured 1, 3, 5 and 7 hours after administration; for ED25: Rattus norvegicus, po, read-out: ED25 SHR os (antihypertensive activity); for ED25 SHR os (antihypertensive activity): oral
Procedure: The antihypertensive activity of the diesters according to the invention was evaluated in male hypertensive rats (SHR, Wister-Kyoto strain, 15-25 weeks old). The determination of blood pressure was performed by an indirect method [M. Gerald et al., Arzneim. Forsch., 18, 1825 (1968)]. The animals were prewarmed in a heating chamber at a temperature of from 35° C. to 37° C. for a period of 15 minutes before pressure determination. The compounds tested by oral route were dissolved or suspended in a 0.5% methylcellulose solution. Controls were given only the vehicle. Systolic blood pressure and heart rate were measured 1, 3, 5 and 7 hours after drug administration by means of a tail-cuff and a pulse transducer.

[2] = tested on: methacholine induced coronary spasm; assay: Coronary dilating activity: antagonism of methacholine induced coronary spasm in anesthetized normotensive rats; assay type: in vivo; conditions: Rattus norvegicus, iv, i.v. infusion in water:dimethylformamide 9:1, normalization of ECG during methacholine infusion
Procedure: Coronary dilating activity was evaluated in anesthetized normotensive rats (weighing about 500 g), as the ability to antagonize methacholine induced coronary spasm. Rats were instrumented for methacholine infusion into the coronary ostium, while spastic activity was detected as ST segment elevation in D2 ECG recording [K. Sakai et al., J. Pharm. Meth., 5, 325 (1981)].
The compounds tested by i.v. infusion were dissolved in water: dimethylformamide (9:1 by volume). Activity was detected as normalization of ECG tracing after compounds administration during methacholine infusion.

mouse = assay: LD50 determined in the mouse, i.p. and per os (Weil method); assay type: in vivo; conditions: for LD50 os: per os
Procedure: as §1

Structure (SMILES)	LD50 ([1]; ip, read-out: LD50 i.p.) [mg/kg]	LD50 ([1]; po, per os, read-out: LD50 os) [mg/kg]	ED25 (hypertensive rats (SHR)) [mg/kg]	ED50 [2] [mg/kg]	LD50 i.p. (mouse) [mg/kg]	LD50 os (mouse) [mg/kg]	ED25 SHR os (antihypertensive activity) (hypertensive rats (SHR)) [mg/kg]
COC(=O)C1=C(C)NC(C)=C(C(=O)OC(C)CN(C)CCC(c2ccccc2)c2ccccc2)C1c1cccc([N+](=O)[O-])c1 (stereo not drawn) [compound 2288, methyl 1, N-dimethyl-N-(3,3-diphenylpropyl)-2-aminoethyl 1,4-dihydro-2,6-dimethyl-4-(3-nitrophenyl)-pyridine-3,5-dicarboxylate]	72	197	1.5	0.046			
CC1=C(C(=O)OCCN(C)CCC(c2ccccc2)c2ccccc2)C(c2cccc([N+](=O)[O-])c2)C(C(=O)OCC(C)C)=C(C)N1 (stereo not drawn) [compound 2329, isobutyl N-(3,3-diphenylpropyl)-N-methyl-2-aminoethyl 1,4-dihydro-2,6-dimethyl-4-(3-nitrophenyl)-pyridine-3,5-dicarboxylate]					63	401	3.4
COC(=O)C1=C(C)NC(C)=C(C(=O)OC(C)(C)CN(C)CCC(c2ccccc2)c2ccccc2)C1c1cccc([N+](=O)[O-])c1 (stereo not drawn) [compound 2375, methyl 1,1,N-trimethyl-N-(3,3-diphenylpropyl)-2-aminoethyl 1,4-dihydro-2,6-dimethyl-4-(3-nitrophenyl)-pyridine-3,5-dicarboxylate]	83	657	2.6	0.082			
CC1=C(C(=O)OCC(C)C)C(c2cccc(Cl)c2Cl)C(C(=O)OC(C)CN(C)CCC(c2ccccc2)c2ccccc2)=C(C)N1 (stereo not drawn) [compound 2383, isobutyl 1,N-dimethyl-N-(3,3-diphenylpropyl)-2-aminoethyl 1,4-dihydro-2,6-dimethyl-4-(2,3-dichlorophenyl)-pyridine-3,5-dicarboxylate]		500	3.4				
COC(=O)C1=C(C)NC(C)=C(C(=O)OCCCN(C)CCC(c2ccccc2)c2ccccc2)C1c1cccc([N+](=O)[O-])c1 (stereo not drawn) [compound 2263, methyl N-(3,3-diphenylpropyl)-N-methyl-3-aminopropyl 1,4-dihydro-2,6-dimethyl-4-(3-nitrophenyl)-pyridine-3,5-dicarboxylate]	171	254	3.4	0.197			
COC(=O)C1=C(C)NC(C)=C(C(=O)OCCNCCC(c2ccccc2)c2ccccc2)C1c1cccc([N+](=O)[O-])c1 (stereo not drawn) [compound 2279, methyl N-(3,3-diphenylpropyl)-2-amino-ethyl 1,4-dihydro-2,6-dimethyl-4-(3-nitrophenyl)-pyridine-3,5-dicarboxylate]	121	279	7.3	0.297			
COC(=O)C1=C(C)NC(C)=C(C(=O)OCCCCN(C)CCC(c2ccccc2)c2ccccc2)C1c1cccc([N+](=O)[O-])c1 (stereo not drawn) [compound 2361, methyl N-(3,3-diphenylpropyl)-N-methyl-4-aminobutyl 1,4-dihydro-2,6-dimethyl-4-(3-nitrophenyl)-pyridine-3,5-dicarboxylate]	99	493	7.2				
CC1=C(C(=O)OCCN(C)CCC(c2ccccc2)c2ccccc2)C(c2cccc([N+](=O)[O-])c2)C(C(=O)OCC(C)C)=C(C)N1 (stereo not drawn) [compound 2352, isobutyl N-(3,3-diphenylpropyl)-N-methyl-2-aminoethyl 1,4-dihydro-2,6-dimethyl-4-(3-nitrophenyl)-pyridine-3,5-dicarboxylate]					222	2195	6.9
CC1=C(C(=O)OCCN(C)CCC(c2ccccc2)c2ccccc2)C(c2cccc([N+](=O)[O-])c2)C(C(=O)OC(C)C)=C(C)N1 (stereo not drawn) [compound 2350, isopropyl N-(3,3-diphenylpropyl)-N-methyl-2-aminoethyl 1,4-dihydro-2,6-dimethyl-4-(3-nitrophenyl)-pyridine-3,5-dicarboxylate]	50	116	3				
